Read-outs that look alike come from different tables or passages of the source.
What was measured:
SARS-CoV-2 M^pro [1] = target: T1, SARS-CoV-2 M^pro (Severe acute respiratory syndrome coronavirus 2, UniProt P0DTD1); assay: FRET screening of SARS-CoV-2 M^pro inhibitors; format: biochemical; settings: for inhibition at 40 µM: read-out: inhibition rate; for IC50: n = 5
Experimental: FRET screening was carried out for identifying the inhibitors of SARS-CoV-2 M^pro. […] The screening system was established by employing M^pro (200 nM), substrate (20 µM), and the tested compounds with the different concentrations from 0.039 to 160 µM. The excitation and emission wavelength were set at 320 and 405 nm, separately. The data was analyzed with Graphpad prism 9.0 and all experiments were performed in triplicates.

SARS-CoV-2 M^pro [2] = target: T1, SARS-CoV-2 M^pro; assay: SPR binding affinity to M^pro (Biacore T200, CM5 chip); settings: for kon / koff: kinetic mode; for kon: read-out: Ka (association rate constant); for koff: read-out: Kd (dissociation rate constant)
Experimental: SPR assay. Biacore T200 system was used for SPR assay. M^pro was conjugated to a sensor Chip (CM5) via amino coupling reaction. The tested compounds were diluted with the running buffer (1.05 × PBS-P, 5% DMSO) to reach the working concentration of 0.977–500 µM, being injected into the channels at a flow rate of 30 µL/min. The coupling time and the dissociation time were respectively set at 60 s and 120 s or 180 s. The data were analyzed for fitting the equilibrium dissociation constant (KD).

SARS-CoV-2 M^pro [3] = target: T1, SARS-CoV-2 M^pro; assay: ITC measurement of binding to M^pro; settings: ITC at 298 K
in vitro = format: cell-based; settings: African green monkey
Experimental: Vero E6 (ATCC, CRL-1586) cells (1 × 10^4 cells/well) were maintained in a 96-well plate for 12 h. All cells were cultured in complete medium composed of Dulbecco’s Modified Eagle Medium (DMEM) (Gibco, USA), 10% (v/v) serum, 100 U/mL penicillin, and 100 µg/mL streptomycin. The diluted solutions of the tested compounds (200 µL) at the concentrations of 100, 80, 60, 40, 20, 10, and 5 µM were added to wells and incubated for another 24 or 48 h, respectively. At the terminus period of incubation, 50 µL MTT (2.5 mg/mL) was added to each well and continuously incubated at 37 ℃ for 4 h. After disposal of the liquid supernatant, 150 µL DMSO was added to each well, whose absorbance was detected at 490 nm via Microplate Reader (TECAN SunriseTM, China). Cytotoxicity was calculated as follows: Cell viability (%) = (ODexperiment-ODBlank)/(ODcontrol-ODBlank) × 100%. The data were analyzed with GraphPad Prism 9.0. All experiments were performed in triplicates.

mice = settings: cited from earlier work
[4] = kinetic mode (physcion: affinity mode)

Row | Structure (SMILES) | inhibition at 40 µM (SARS-CoV-2 M^pro [1]) [%] | IC50 (SARS-CoV-2 M^pro [1]; with 0.01% Triton X-100) [µM] | Kd (SARS-CoV-2 M^pro [2]) [µM] | IC50 (SARS-CoV-2 M^pro [1]; without Triton X-100) [µM] | Kd (SARS-CoV-2 M^pro [2]; [4]) [µM] | kon (SARS-CoV-2 M^pro [2]) [M⁻¹ s⁻¹] | koff (SARS-CoV-2 M^pro [2]) [s⁻¹] | N (binding stoichiometry) (SARS-CoV-2 M^pro [3]) | ΔS (entropy variation) (SARS-CoV-2 M^pro [3]) [cal/mol/deg] | CC50 (in vitro) [µM] | safe dose (mice)
1 | CCCCC/C=C\C/C=C\CCCCCCCC(=O)O [Linoleic acid, Linoleic Acid] | > 90 | 43 ± 1.93 | 10.8 |  |  |  |  |  |  |  | 
2 | COc1c(/C=C/C(=O)c2ccc(O)c(CC=C(C)C)c2)ccc(O)c1O [Licochalcone D] | > 90 | 29.5 |  | 5.54 | 4.87 | 2810 | 0.0137 |  |  |  | 
3 | COc1c(/C=C/C(=O)c2ccc(O)cc2)ccc(O)c1O [Licochalcone B] | > 90 | 5.12 ± 1.53 |  | 4.24 ± 1.03 | 5.64 | 2210 | 0.0125 |  |  |  | 
4 | C[C@@H]1O[C@@H](O[C@@H]2[C@@H](O)[C@H](OCCc3ccc(O)c(O)c3)O[C@H](CO)[C@H]2OC(=O)/C=C/c2ccc(O)c(O)c2)[C@H](O)[C@H](O)[C@H]1O [Acteoside] | > 90 | 1.93 ± 0.76 |  | 2.53 ± 1.02 | 4.67 | 847 | 0.00396 | 0.48 | 27.3 | > 100 | up to 800 mg/kg
5 | COc1cc(O)c2c(c1)C(=O)c1cc(C)cc(O)c1C2=O [Physcion] | > 90 | 31.6 ± 25.6 | 167 | 22.1 ± 3.01 |  |  |  |  |  |  | 

Source: paper PMC10394814, “Discovery and evaluation of active compounds from Xuanfei Baidu formula against COVID-19 via SARS-CoV-2 M^pro” (Chinese Medicine, 2023)
